Experimental data taken from patent US20200345721A1, “Device for Deterring Abuse of Drugs” (EIGHTY EIGHT PHARMA, INC., priority 2019, published 2020).
Where a name gives a salt, the structure may show the parent alone. Read-outs that look alike come from different tables or passages of the source.

Legend:
[1] = Solubility of naltrexone in ethanol/water; assay type: physicochemical
Experimental: A solution of naltrexone in 60% Ethanol/40% water at a concentration of 19 mg/ml was achieved without precipitation.
To determine a formulation which will deposit 3.6-9.6 mg of Naltrexone onto small IR tablets within a specified period of time, the ratio of ethanol to water was adjusted to increase solubility of Naltrexone.

[2] = Naltrexone recovered from IR and ER tablets, 23 mg/mL solutions (Example 4); settings: 23 mg/ml ethanol/water solution, lower proportion of ethanol
Experimental: To compare formulations of Naltrexone and Naltrexone HCl which will deposit 3.6-9.6 mg of Naltrexone onto small IR tablets, small extended release (“ER”) tablets and large ER tablets, Naltrexone (23 mg/ml) and Naltrexone HCl (23 mg/ml) solutions were used. Six (6) small IR tablets (Homeopathy Blank 5 Grain, Lactose, Lot #: 07090710H3, Exp. 08/23), six (6) small ER Tablets (Mucus Relief Guaifenesin Extended-Release Tablets, 600 mg, Lot #: F07210, Exp. 04/20), and three (3) large ER tablets (Mucus Relief Guaifenesin Extended-Release Tablets, 1200 mg, Lot #: F08474, Exp. 05/20) were tested. Tablets were placed in test tubes or kept in their blister packaging and spiked with a 23 mg/mL spiking solution containing either Naltrexone Base or Naltrexone HCl. Small tablets (IR and ER) were divided into two groups of 3 and coated with a solution prepared with either Naltrexone base (23 mg/ml) or Naltrexone HCl (23 mg/ml). Large ER tablets were spiked with Naltrexone base solution only while remaining in their original blister packaging. Each tablet remained in solution for a period of 2, 6 or 10 minutes before removal and testing form Naltrexone. The large ER tablets spiked with Naltrexone NCl were not completed due to time limitations

[3] = tested on: animals; settings: cited from earlier work
[4] = tested on: humans; settings: 800 mg daily for up to one week, human subjects; cited from earlier work
[5] = Naltrexone HCl solubility, HPLC analysis; assay type: physicochemical; settings: for solubility at 2 h / solubility at 1 h / solubility: thermodynamic from solid; for solubility at 1 h: sample 50 mg/mL
Experimental: To determine the solubility of Naltrexone HCl in solutions of 100% water or 60%/40% Ethanol/water, solutions of Naltrexone HCl were prepared at 50 mg/mL and 100 mg/mL in 100% water or 60%/40% ethanol/water for a total of 4 solutions. Solutions were vortex mixed, placed on a mechanical shaker and evaluated every 30 minutes for complete dissolution. Once fully dissolved, each solution was prepared for HPLC by diluting to 2 mg/mL in methanol and 0.1M phosphoric acid and analyzed on an HPLC.
The 50 mg/mL samples were fully dissolved into solution following 1 hour on the mechanical shaker with periodic vortex mixing. The 100 mg/mL solution prepared in the ethanol/water mixture was dissolved after a total of 2 hours shaking with periodic vertex mixing. The 100 mg/mL solution in 100% water was also sonicated. HPLC results are included in Table 3.

[6] = tested on: guinea pig; settings: cited from earlier work
[7] = tested on: pharmacologic effects of 25 mg of intravenously administered heroin; settings: cited from earlier work
[8] = tested on: rat; settings: cited from earlier work

SMILES	concentration achieved without precipitation ([1]; 60% Ethanol/40% water) [µg/mL]	final concentration of solution, titrated with water until precipitates formed ([1]; 75:25 ethanol to water) [mg/mL]	stability of the solution [2]	cause of mortalities ([3]; high-dose administration, animals)	evidence of toxicity [4]	time on mechanical shaker until fully dissolved ([5]; 50 mg/mL samples, periodic vortex mixing) [h]	total shaking time until dissolved ([5]; 100 mg/mL in ethanol/water mixture) [h]	solubility at 2 h ([5]; 60%/40% ethanol/water, aqueous with cosolvent or surfactant or cyclodextrin, 60%/40% ethanol/water, read-out: solubility (soluble up to)) [mg/mL]	solubility at 1 h ([5]; 60:40 ethanol:water, aqueous with cosolvent or surfactant or cyclodextrin, 60:40 Ethanol:water, HPLC, read-out: Solubilized Concentration) [mg/mL]	solubility at 2 h ([5]; 60:40 ethanol:water, aqueous with cosolvent or surfactant or cyclodextrin, sample 100 mg/mL, 60:40 Ethanol:water, HPLC, read-out: Solubilized Concentration) [mg/mL]	solubility ([5]; 100% water, water, 100% water, read-out: solubility (soluble up to)) [mg/mL]	solubility at 1 h ([5]; 100% water, water, 100% water, HPLC, read-out: Solubilized Concentration) [mg/mL]	solubility ([5]; 100% water, water, sample 100 mg/mL, 100% water, HPLC, read-out: Solubilized Concentration) [mg/mL]	oral LD50 [6]	duration of blockade of pharmacologic effects of heroin ([7]; 50 mg naltrexone hydrochloride vs 25 mg intravenous heroin) [hours]	duration of blockade ([7]; doubling the dose of naltrexone hydrochloride) [h]	duration of blockade ([7]; tripling the dose of naltrexone hydrochloride)	oral LD50 [8]	signs produced by high doses ([3]; high doses, generally >1,000 mg/kg)
O=C1CC[C@@]2(O)[C@H]3Cc4ccc(O)c5c4[C@@]2(CCN3CC2CC2)[C@H]1O5 [Naltrexone Base, naltrexone]	19000	37.5	comes out of solution over time	tonic-clonic convulsions and/or respiratory failure	–	–	–	–	–	–	–	–	–	–	–	–	–	–	–
O=C1CC[C@@]2(O)[C@H]3Cc4ccc(O)c5c4[C@@]2(CCN3CC2CC2)[C@H]1O5 [Naltrexone HCl, naltrexone hydrochloride]	–	–	–	–	no evidence of toxicity	1	2	≥ 100	48.6	96.1	≥ 100	49	96.9	1,490 mg/kg	≤ 24	48	about 72 hours	1,450 mg/kg	salivation, depression/reduced activity, tremors, and convulsions
